Experimental data as given in patent US10577332B2, “Tetrazole derivatives” (Hoffmann-La Roche Inc., priority 2015, dated 2020).

Key:
human EAAT3 = molecular target: T1, human EAAT3 (Homo sapiens, UniProt P43005); assay: FLIPR Membrane Potential (FMP) assay; type: cell-based; conditions: HEK-293 cells stably expressing human EAAT3; antagonist applied 15 min before L-glutamate at EC80; Kb by Cheng-Prusoff from IC50
T1 construct: expressed in transfected cells
T1 sequence (P43005 1-524): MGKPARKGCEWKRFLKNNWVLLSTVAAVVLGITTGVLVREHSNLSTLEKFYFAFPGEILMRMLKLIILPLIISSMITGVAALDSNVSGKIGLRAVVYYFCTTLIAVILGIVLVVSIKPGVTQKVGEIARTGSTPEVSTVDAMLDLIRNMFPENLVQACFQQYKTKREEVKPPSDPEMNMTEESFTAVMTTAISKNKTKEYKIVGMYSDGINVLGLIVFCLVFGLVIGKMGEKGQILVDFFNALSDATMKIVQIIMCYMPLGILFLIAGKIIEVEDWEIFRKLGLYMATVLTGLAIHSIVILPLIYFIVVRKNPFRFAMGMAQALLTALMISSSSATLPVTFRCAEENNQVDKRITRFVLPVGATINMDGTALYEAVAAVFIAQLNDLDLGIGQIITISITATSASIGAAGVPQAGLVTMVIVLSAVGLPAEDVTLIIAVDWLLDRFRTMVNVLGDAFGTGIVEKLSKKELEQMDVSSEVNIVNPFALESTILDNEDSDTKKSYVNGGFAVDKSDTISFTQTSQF
Procedure: The FLIPR Membrane Potential (FMP) Assay
HEK-293 cells stably expressing human EAAT3 were seeded at 55 000 cells/well in growth medium (DMEM glutamate free (Invitrogen 11960-044), 1% Pen Strep (10 ml/l GIBCO BRL No 15140-023), 10% FCS non dialysed heat inactivated, 5 mg/l puromycin) in poly-D-lysine treated 96-well black microtiter plates with clear-bottom. After 24 h, the growth medium was removed and 100 μl/well of Krebs buffer (140 mM NaCl, 4.7 mM KCl, 2.5 mM CaCl2, 1.2 mM MgCl2, 11 mM HEPES, 10 mM D-glucose, pH=7.4) added. The cells were then loaded by adding 100 μl/well FMP assay dye (FLIPR Membrane Potential assay reagent, Molecular Devices). The 96-well plates were then incubated at 37° C. for 1 h. The depolarization of the cells will cause more dye to enter in the cells, where it will bind to intracellular proteins and lipids and cause an increase in the fluorescence signal. Antagonist potency at human EAAT3 was determined by using L-glutamate as agonist at a concentration which gives 80% of the maximum response. The antagonists were applied 15 min before the application of the agonist L-glutamate. The assays were performed at room temperature and measurements done by using a Fluorometric Imaging Plate Reader (FLIPR, Molecular Devices) and filter #2. Responses were measured as peak increase in fluorescence minus basal (i.e. fluorescence without addition of L-glutamate). Kb was determined using the Cheng-Prusoff equation Kb=IC50/[1+(A/EC50)], where IC50 is the concentration of the antagonist producing 50% inhibition, A is the concentration of the agonist against which the IC50 is being determined (at EC80) and EC50 is the concentration of the agonist producing 50% […].

melting point [°C] | Kb (human EAAT3) [nM] | Structure (SMILES)
73 | 210 | CCc1nnnn1-c1cc(C(=O)NC(C)(C)C)cc(-c2ccc(C)cc2)c1 [Example 30, N-tert-Butyl-3-(5-ethyltetrazol-1-yl)-5-(4-methylphenyl)-benzamide]
191 | 210 | CC(C)(NC(=O)c1cc(-c2ccc(Cl)cc2)cc(-n2cnnn2)c1)C1CC1 [Example 31, 3-(4-Chlorophenyl)-N-(2-cyclopropylpropan-2-yl)-5-(tetrazol-1-yl)-benzamide]
74.5 | 450 | Cc1ccc(-c2cc(C(=O)NC(C)(C)C3CC3)cc(-n3nnnc3C3CC3)c2)cc1 [Example 35, N-(2-Cyclopropylpropan-2-yl)-3-(5-cyclopropyltetrazol-1-yl)-5-(4-methylphenyl)-benzamide]
59.5 | 350 | CCc1nnnn1-c1cc(C(=O)NC(C)(C)C2CC2)cc(-c2ccc(C)cc2)c1 [Example 36, N-(2-Cyclopropylpropan-2-yl)-3-(5-ethyltetrazol-1-yl)-5-(4-methylphenyl)-benzamide]
206 | 700 | CCC(C)(C)NC(=O)c1cc(-c2ccc(Cl)c(Cl)c2)cc(-n2cnnn2)c1 [Example 38, 3-(3,4-Dichlorophenyl)-N-(2-methylbutan-2-yl)-5-(tetrazol-1-yl)-benzamide]
189 | 200 | CCC(C)(C)NC(=O)c1cc(-c2ccc(F)c(F)c2)cc(-n2cnnn2)c1 [Example 39, 3-(3,4-Difluorophenyl)-N-(2-methylbutan-2-yl)-5-(tetrazol-1-yl)-benzamide]
205 | 570 | CCC(C)(C)NC(=O)c1cc(-c2ccc(F)c(Cl)c2)cc(-n2cnnn2)c1 [Example 40, 3-(3-Chloro-4-fluorophenyl)-N-(2-methylbutan-2-yl)-5-(tetrazol-1-yl)-benzamide]
187 | 350 | CC(C)(NC(=O)c1cc(-c2ccc(Cl)cc2)cc(-n2cnnn2)c1)C(F)(F)F [Example 41, 3-(4-Chlorophenyl)-5-(tetrazol-1-yl)-N-(1,1,1-trifluoro-2-methylpropan-2-yl)-benzamide]
85 | 160 | CCC(C)(C)NC(=O)c1cc(-c2ccc(Cl)cc2)cc(-n2nnnc2C(C)C)c1 [Example 42, 3-(4-Chlorophenyl)-N-(2-methylbutan-2-yl)-5-(5-propan-2-yltetrazol-1-yl)-benzamide]
90 | 89 | CC(C)c1nnnn1-c1cc(C(=O)NC(C)(C)C)cc(-c2ccc(Cl)cc2)c1 [Example 43, N-tert-Butyl-3-(4-chlorophenyl)-5-(5-propan-2-yltetrazol-1-yl)-benzamide]
83 | 210 | CC(C)c1nnnn1-c1cc(C(=O)NC(C)(C)C2CC2)cc(-c2ccc(Cl)cc2)c1 [Example 44, 3-(4-Chlorophenyl)-N-(2-cyclopropylpropan-2-yl)-5-(5-propan-2-yltetrazol-1-yl)-benzamide]
89 | 190 | CCC(C)(C)NC(=O)c1cc(-c2ccc(C(F)(F)F)cc2)cc(-n2nnnc2C(C)C)c1 [Example 46, N-(2-Methylbutan-2-yl)-3-(5-propan-2-yltetrazol-1-yl)-5-[4-(trifluoro-methyl)-phenyl]-benzamide]

The remaining lines, values behind:

Structure (SMILES) | melting point [°C] | Kb (human EAAT3) [nM]
CCC(C)(C)NC(=O)c1cc(-c2ccc(OC)cc2)cc(-n2cnnn2)c1 [Example 7, 3-(4-Methoxyphenyl)-N-(2-methylbutan-2-yl)-5-(tetrazol-1-yl)-benzamide] | 150 | 410
CCC(C)(C)NC(=O)c1cc(-c2ccc(C)cc2)cc(-n2nnnc2C(C)C)c1 [Example 10, N-(2-Methylbutan-2-yl)-3-(4-methylphenyl)-5-(5-propan-2-yltetrazol-1-yl)-benzamide] | 104 | 230
CCC(C)(C)NC(=O)c1cc(-c2ccc(Cl)cc2)cc(-n2cnnn2)c1 [Example 11, 3-(4-Chlorophenyl)-N-(2-methylbutan-2-yl)-5-(tetrazol-1-yl)-benzamide] | 206 | 76
CC(C)(C)NC(=O)c1cc(-c2ccc(Cl)cc2)cc(-n2cnnn2)c1 [Example 12, N-tert-Butyl-3-(4-chlorophenyl)-5-(tetrazol-1-yl)-benzamide] | 199 | 350
Cc1ccc(-c2cc(C(=O)NC(C)(C)C(F)(F)F)cc(-n3cnnn3)c2)cc1 [Example 13, 3-(4-Methylphenyl)-5-(tetrazol-1-yl)-N-(1,1,1-trifluoro-2-methylpropan-2-yl)-benzamide] | 190.5 | 650
Cc1ccc(-c2cc(C(=O)NC(C)(C)CO)cc(-n3nnnc3C(C)C)c2)cc1 [Example 14, N-(1-Hydroxy-2-methylpropan-2-yl)-3-(4-methylphenyl)-5-(5-propan-2-yltetrazol-1-yl)-benzamide] | 75 | 650
CC(C)(CO)NC(=O)c1cc(-c2ccc(Cl)cc2)cc(-n2cnnn2)c1 [Example 15, 3-(4-Chlorophenyl)-N-(1-hydroxy-2-methylpropan-2-yl)-5-(tetrazol-1-yl)-benzamide] | 137 | 800
CC(C)(NC(=O)c1cc(-c2ccc(F)cc2)cc(-n2cnnn2)c1)C(F)(F)F [Example 18, 3-(4-Fluorophenyl)-5-(tetrazol-1-yl)-N-(1,1,1-trifluoro-2-methylpropan-2-yl)-benzamide] | 175 | 430
Cc1ccc(-c2cc(C(=O)NC(C)(C)C(F)(F)F)cc(-n3nnnc3C(C)C)c2)cc1 [Example 19, 3-(4-Methylphenyl)-5-(5-propan-2-yltetrazol-1-yl)-N-(1,1,1-trifluoro-2-methylpropan-2-yl)-benzamide] | 79 | 230
Cc1ccc(-c2cc(C(=O)NC(C)(C)C3CC3)cc(-n3nnnc3C(C)C)c2)cc1 [Example 20, N-(2-Cyclopropylpropan-2-yl)-3-(4-methylphenyl)-5-(5-propan-2-yltetrazol-1-yl)-benzamide] | 78 | 310
CC(C)(NC(=O)c1cc(-c2ccc(F)cc2)cc(-n2cnnn2)c1)C1CC1 [Example 21, N-(2-cyclopropylpropan-2-yl)-3-(4-fluorophenyl)-5-(tetrazol-1-yl)-benzamide] | 193 | 960
Cc1ccc(-c2cc(C(=O)NC(C)(C)C)cc(-n3nnnc3C)c2)cc1 [Example 23, N-tert-Butyl-3-(4-methylphenyl)-5-(5-methyltetrazol-1-yl)-benzamide] | 85 | 290
Cc1ccc(-c2cc(C(=O)NC(C)(C)C(F)(F)F)cc(-n3nnnc3C3CC3)c2)cc1 [Example 25, 3-(5-Cyclopropyltetrazol-1-yl)-5-(4-methylphenyl)-N-(1,1,1-trifluoro-2-methylpropan-2-yl)-benzamide] | 82 | 270
CCc1nnnn1-c1cc(C(=O)NC(C)(C)C(F)(F)F)cc(-c2ccc(C)cc2)c1 [Example 26, 3-(5-Ethyltetrazol-1-yl)-5-(4-methylphenyl)-N-(1,1,1-trifluoro-2-methylpropan-2-yl)-benzamide] | 78 | 300
CCC(C)(C)NC(=O)c1cc(-c2ccc(C)cc2)cc(-n2nnnc2C2CC2)c1 [Example 27, 3-(5-Cyclopropyltetrazol-1-yl)-N-(2-methylbutan-2-yl)-5-(4-methylphenyl)-benzamide] | 75 | 200
CCc1nnnn1-c1cc(C(=O)NC(C)(C)CC)cc(-c2ccc(C)cc2)c1 [Example 28, 3-(5-Ethyltetrazol-1-yl)-N-(2-methylbutan-2-yl)-5-(4-methylphenyl)-benzamide] | 71.5 | 140
Cc1ccc(-c2cc(C(=O)NC(C)(C)C)cc(-n3nnnc3C3CC3)c2)cc1 [Example 29, N-tert-Butyl-3-(5-cyclopropyltetrazol-1-yl)-5-(4-methylphenyl)-benzamide] | 91 | 200
